Experimental data published in patent US20250243488A1, “METHODS OF MODULATING PROGRANULIN EXPRESSION USING ANTISENSE OLIGONUCLEOTIDES TARGETING REGULATORY RNAS” (Camp4 Therapeutics Corporation, priority 2022, published 2025).
Oligonucleotides are written 5' to 3', each unit as a sugar letter and its base; * is a phosphorothioate linkage, no mark a phosphodiester; rarer units and linkages stand in square brackets, end groups in braces. Plain capitals give the bases only. e = 2'-O-(2-methoxyethyl) (MOE); l = locked nucleic acid (LNA); [5mC] = 5-methylcytosine; d = 2'-deoxy (DNA)

System: GRN mRNA
Experiment: GRN mRNA qPCR in SK-N-AS cells transfected with ASOs
Assay type: cell-based, human
Details: SK-N-AS; for 120 nM FC (GRN mRNA) / hGRN mRNA FC: 120 nM; for hit identification (GRN mRNA dose escalation): 3.75 nM to 120 nM
How it was run: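 Human neuroblastoma SK-N-AS cells transfected with ASOs at increasing concentrations (20 to 160 nM in initial titrations); GRN mRNA quantified by qPCR after 48 hours. Normalized to GAPDH and PPIA, fold change relative to steric non-targeting control ASO(s) (sNTC/CO-1589, with CO-3772 and CO-1929 in some series).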

[1] = Table 8, normalized to CO-1589 (sNTC1)
[2] = Table 9, 48 hours post-transfection, normalized to CO-1589
[3] = Table 12, normalized to CO-1589
[4] = Table 10, 48 hours, normalized to CO-1589
[5] = Table 13, normalized to CO-1589
[6] = Table 11, 48 hours, normalized to CO-1589

CO-5289: ASO based on CO-3463 incorporating additional LNA modifications (antisense GGATAGGATAGGAGCGAGCC; LNA/MOE mixmer, PS backbone, 5-methylcytosine; listed as RNA; modified_base 1..20: mod_base = OTHER; note = Phosphorothioate linkage; modified_base 1..2: mod_base = OTHER; note = locked nucleic acid; modified_base 3: mod_base = OTHER; note = 2'-O-(2-methoxyethyl) ribonucleotide; modified_base 4: mod_base)
GRN mRNA upregulation as compared to control ASO CO-1589 (Table 8 series): 2 fold
7.5 nM FC (GRN mRNA) [1]: 1.4 FC
13 nM FC (GRN mRNA) (Table 8, 13 nM, normalized to CO-1589 (sNTC1)): 1.4 FC
30 nM FC (GRN mRNA) [1]: 1.5 FC
60 nM FC (GRN mRNA) [1]: 1.9 FC
120 nM FC (GRN mRNA) [1]: 1.9 FC
150 nM FC (GRN mRNA) (Table 8, 150 nM, normalized to CO-1589 (sNTC1)): 1.9 FC

CO-4627: ASO designed to target intergenic enhancers (eRNA) (antisense eA*e[5mC]*eT*e[5mC]*eA*eA*eT*eG*e[5mC]*eA*eT*eA*eG*e[5mC]*eA*eG*eA*eA*eT*eA)
hGRN mRNA FC [2]: 1.3 FC

CO-6383: ASO based on parent ASO CO-3462 (antisense eT*eA*eG*eG*eA*dG*dA*dA*dT*d[5mC]*dG*d[5mC]*dT*dT*dT*eG*eG*eG*eA*eG)
30 nM FC (GRN mRNA) [3]: 1.2 FC
60 nM FC (GRN mRNA) [3]: 1.0 FC
120 nM FC (GRN mRNA) [3]: 1.2 FC

CO-4585: ASO designed to target intergenic enhancers (eRNA) (antisense eT*e[5mC]*eG*eA*eA*eT*e[5mC]*eT*e[5mC]*e[5mC]*eG*eG*e[5mC]*eT*e[5mC]*eT*eT*e[5mC]*eA*e[5mC])
hGRN mRNA FC [2]: 1.4 FC

CO-4624: ASO designed to target intergenic enhancers (eRNA) (antisense eG*eT*e[5mC]*eA*eG*eA*e[5mC]*eT*eG*eT*e[5mC]*e[5mC]*eT*eA*e[5mC]*eA*e[5mC]*e[5mC]*eT*eT)
hGRN mRNA FC [2]: 1.3 FC

CO-4619: ASO designed to target intergenic enhancers (eRNA) (antisense eT*eG*eA*eT*eA*eT*eA*eG*eA*eG*eA*eT*e[5mC]*eT*eG*e[5mC]*eA*eG*e[5mC]*e[5mC])
hit identification (GRN mRNA dose escalation) (48 hours): initial hits
hGRN mRNA FC [2]: 1.3 FC
3.75 nM FC (GRN mRNA) [4]: 1.0 FC
7.5 nM FC (GRN mRNA) [4]: 1.1 FC
15 nM FC (GRN mRNA) [4]: 1.3 FC
30 nM FC (GRN mRNA) [4]: 1.2 FC
60 nM FC (GRN mRNA) [4]: 1.2 FC
120 nM FC (GRN mRNA) [4]: 1.6 FC

CO-6385: ASO based on parent ASO CO-3462 (antisense e[5mC]*eG*eG*eT*eA*eG*eG*eA*eG*eA*eA*eT*e[5mC]*eG*e[5mC]*eT*eT*eT*eG*eG)
30 nM FC (GRN mRNA) [3]: 1.1 FC
60 nM FC (GRN mRNA) [3]: 1.2 FC
120 nM FC (GRN mRNA) [3]: 1.3 FC

CO-4587: ASO designed to target intergenic enhancers (eRNA) (antisense eT*eT*e[5mC]*eT*eA*eA*eA*e[5mC]*eG*e[5mC]*eG*eA*eA*eG*eT*eG*eG*eG*eT*eG)
hGRN mRNA FC [2]: 1.2 FC

CO-6419: ASO based on parent ASOs CO-4363 and CO-4364 (eG*eG*eA*e[5mC]*eT*dT*dG*dG*dG*dA*dG*dT*dG*dG*dT*dG*dA*d[5mC]*eT*eG*eA*eA*e[5mC])
30 nM FC (GRN mRNA) [5]: 1.0 FC
60 nM FC (GRN mRNA) [5]: 1.0 FC
120 nM FC (GRN mRNA) [5]: 0.9 FC

CO-6448: ASO designed to target an intragenic enhancer RNA (eRNA) (eT*e[5mC]*e[5mC]*e[5mC]*eG*eG*eT*eG*e[5mC]*e[5mC]*e[5mC]*eT*eG*eA*eT*eG*eG*eT*eT*e[5mC])
hGRN mRNA FC [6]: 1.1 FC

CO-4634: ASO designed to target intergenic enhancers (eRNA) (antisense eT*eT*eT*eA*e[5mC]*e[5mC]*e[5mC]*eA*eT*eA*eT*eA*e[5mC]*e[5mC]*e[5mC]*eA*e[5mC]*eA*e[5mC]*e[5mC])
hGRN mRNA FC [2]: 1.1 FC

CO-4613: ASO designed to target intergenic enhancers (eRNA) (antisense eA*eT*e[5mC]*eA*eA*eG*eG*eG*eT*eT*eT*eG*eG*e[5mC]*eG*eT*eT*eT*eA*eG)
hit identification (GRN mRNA dose escalation) (48 hours): initial hits
hGRN mRNA FC [2]: 1.6 FC
3.75 nM FC (GRN mRNA) [4]: 1.0 FC
7.5 nM FC (GRN mRNA) [4]: 1.1 FC
15 nM FC (GRN mRNA) [4]: 1.2 FC
30 nM FC (GRN mRNA) [4]: 1.1 FC
60 nM FC (GRN mRNA) [4]: 1.2 FC
120 nM FC (GRN mRNA) [4]: 1.4 FC

CO-6408: ASO based on parent ASO CO-3462 (antisense eT*eA*eG*eGeAeGeA*eA*eT*e[5mC]*eG*e[5mC]*eT*eTeTeGeG*eG*eA*eG)
30 nM FC (GRN mRNA) [3]: 1.0 FC
60 nM FC (GRN mRNA) [3]: 1.1 FC
120 nM FC (GRN mRNA) [3]: 1.5 FC

CO-6393: ASO based on parent ASO CO-3462 (antisense eT*eA*lG*eG*lA*eG*lA*eA*lT*e[5mC]*lG*e[5mC]*lT*eT*lT*eG*lG*eG*eA*eG)
30 nM FC (GRN mRNA) [3]: 0.9 FC
60 nM FC (GRN mRNA) [3]: 0.7 FC
120 nM FC (GRN mRNA) [3]: 1.0 FC

CO-6441: ASO designed to target an intragenic enhancer RNA (eRNA) (eG*eG*e[5mC]*eT*eG*eA*eT*eG*e[5mC]*eA*eG*eG*eG*eT*eT*e[5mC]*eA*eT*eG*e[5mC])
hGRN mRNA FC [6]: 1.4 FC

CO-4623: ASO designed to target intergenic enhancers (eRNA) (antisense e[5mC]*e[5mC]*eT*eG*eA*e[5mC]*e[5mC]*eT*eG*e[5mC]*e[5mC]*eA*eT*e[5mC]*eT*eA*eT*e[5mC]*eA*eA)
hGRN mRNA FC [2]: 1.1 FC

CO-6395: ASO based on parent ASO CO-3462 (antisense eT*eA*eG*eG*lA*eG*eA*eA*lT*e[5mC]*eG*e[5mC]*lT*eT*eT*eG*lG*eG*eA*eG)
30 nM FC (GRN mRNA) [3]: 1.0 FC
60 nM FC (GRN mRNA) [3]: 1.3 FC
120 nM FC (GRN mRNA) [3]: 1.6 FC

CO-6384: ASO based on parent ASO CO-3462 (antisense eG*eT*eA*eG*eG*eA*eG*eA*eA*eT*e[5mC]*eG*e[5mC]*eT*eT*eT*eG*eG*eG*eA)
30 nM FC (GRN mRNA) [3]: 1.0 FC
60 nM FC (GRN mRNA) [3]: 1.0 FC
120 nM FC (GRN mRNA) [3]: 1.5 FC

CO-4594: ASO designed to target intergenic enhancers (eRNA) (antisense eA*eA*eA*eG*eG*eA*e[5mC]*eG*e[5mC]*e[5mC]*eT*eT*e[5mC]*eT*e[5mC]*eT*e[5mC]*eG*eG*eG)
hGRN mRNA FC [2]: 1.3 FC

CO-4636: ASO designed to target intergenic enhancers (eRNA) (antisense eG*eG*e[5mC]*eA*eA*eT*eT*eA*e[5mC]*eA*eT*eA*e[5mC]*eA*eT*eG*eA*eG*eG*eA)
hGRN mRNA FC [2]: 0.9 FC

CO-4640: ASO designed to target intergenic enhancers (eRNA) (antisense eG*e[5mC]*e[5mC]*e[5mC]*e[5mC]*e[5mC]*eT*eA*eG*eA*eG*eG*eA*e[5mC]*eA*eT*eT*eT*eT*eT)
hGRN mRNA FC [2]: 1.0 FC

CO-6516: ASO based on parent ASO CO-3462 (antisense eT*eA*eGeGeAeGeAeAeTe[5mC]eGe[5mC]eTeTeT*eG*eG*eG*eA*eG)
30 nM FC (GRN mRNA) [3]: 1.0 FC
60 nM FC (GRN mRNA) [3]: 1.4 FC
120 nM FC (GRN mRNA) [3]: 1.0 FC

CO-6518: ASO based on parent ASO CO-3462 (antisense eT*eA*eG*eGeAeGeAeAeTe[5mC]eGe[5mC]eTeTeTeGeGeG*eA*eG)
30 nM FC (GRN mRNA) [3]: 1.2 FC
60 nM FC (GRN mRNA) [3]: 1.3 FC
120 nM FC (GRN mRNA) [3]: 0.9 FC

CO-4588: ASO designed to target intergenic enhancers (eRNA) (antisense eG*e[5mC]*eT*eG*eG*eT*eT*eT*e[5mC]*eT*e[5mC]*eT*eG*eT*eT*eA*eG*eG*eA*e[5mC])
hGRN mRNA FC [2]: 0.9 FC
